Where two headings read alike, the source gives them in different places.
Legend:
[1] = molecular target: T1, SOS1 catalytic domain (residues 564-1049) (Homo sapiens, UniProt Q07889); experiment: Mode of Action Assay: inhibition of SOS1 nucleotide exchange activity (SOS1 TR-FRET IC50 Assay)
T1 sequence (Q07889 564-1049): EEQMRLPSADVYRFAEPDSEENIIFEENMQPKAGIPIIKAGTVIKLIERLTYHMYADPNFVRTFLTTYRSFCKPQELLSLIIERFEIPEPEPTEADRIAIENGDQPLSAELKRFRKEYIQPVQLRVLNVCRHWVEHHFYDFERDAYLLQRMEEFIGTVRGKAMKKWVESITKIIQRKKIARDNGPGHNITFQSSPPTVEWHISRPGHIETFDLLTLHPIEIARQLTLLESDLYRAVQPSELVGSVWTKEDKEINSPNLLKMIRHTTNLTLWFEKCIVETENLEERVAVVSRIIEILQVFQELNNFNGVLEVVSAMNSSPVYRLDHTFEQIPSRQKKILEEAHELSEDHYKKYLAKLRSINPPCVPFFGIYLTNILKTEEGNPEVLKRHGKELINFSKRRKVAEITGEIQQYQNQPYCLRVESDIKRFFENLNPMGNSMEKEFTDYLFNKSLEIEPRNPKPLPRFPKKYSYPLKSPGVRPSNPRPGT

[2] = test system: PC-9 cells (EGFR Ex19Del); experiment: Potency Assay: pERK (SOS1 pERK IC50 Assay, AlphaLISA SureFire Ultra p-ERK1/2); format: cell-based; conditions: Homo sapiens, read-out: SOS1 pERK IC50
Method: The purpose of this assay is to measure the ability of test compounds to inhibit SOS1 function in cells. SOS1 activates RAS proteins by catalyzing the conversion of RAS GDP to RAS GTP in response to receptor tyrosine kinase activation. […] The procedure described below measures the level of cellular pERK in response to test compounds in PC-9 cells (EGFR Ex19Del).
PC-9 cells were grown and maintained using media and procedures recommended by the ATCC. On the day prior to compound addition, cells were plated in 384-well cell culture plates (40 μL/well) and grown overnight in a 37° C., 5% CO2 incubator. Test compounds were prepared in 10, 3-fold dilutions in DMSO, with a top concentration of 10 mM. On the day of the assay, 40 nL of test compound was added to each well of cell culture plate using an Echo550 liquid handler (LabCyte). Concentrations of test compound were tested in duplicate with highest test concentration being 10 μM. After compound addition, cells were incubated for 1 hour at 37° C., 5% CO2. Following incubation, culture medium was removed and cells were washed once with phosphate buffered saline.
Cellular pERK level was determined using the AlphaLISA SureFire Ultra p-ERK1/2 Assay Kit (PerkinElmer). Cells were lysed in 25 μL lysis buffer, with shaking at 600 RPM at room temperature for 15 minutes. Lysate (10 μL) was transferred to a 384-well Opti-plate (PerkinElmer) and 5 μL acceptor mix was added. The plate was centrifuged at 1000 RPM for 1 minute, and incubated in the dark for 2 hours. Following this incubation, 5 μL of donor mix was added, the plate was sealed and centrifuged at 1000 RPM for 1 minute, and the mixture was incubated for 2 hours at room temperature. Signal was read on an Envision plate reader (PerkinElmer) using standard AlphaLISA settings. Analysis of raw data was carried out in Excel (Microsoft) and Prism (GraphPad). Signal was plotted vs. the decadal logarithm of compound concentration, and IC50 was determined by fitting a 4-parameter sigmoidal concentration response model.

[3] = PC-9 cells (EGFR Ex19Del), 1 hour incubation, AlphaLISA p-ERK1/2

Row | Structure (SMILES) | IC50 [1] [µM] | IC50 [2, 3] [µM] | IC50 ([2]; PC-9, 1 h) [µM]
1 | C[C@@H](Nc1nc(Cl)nc2c1CN(C(=O)[C@H]1[C@@H]3CNC[C@@H]31)C2)c1cc(N)cc(C(F)(F)F)c1 [Example 269] | < 1 | > 1 | 
2 | C[C@@H](Nc1nc(Cl)nc2c1CN(C(=O)C1CCCN1c1ncccn1)CC2)c1cc(N)cc(C(F)(F)F)c1 (stereo partly shown) [Example 200] | > 1 | > 1 | 
3 | Cc1c(C(C)Nc2nc(Cl)nc3c2CN(C(=O)N2CCOCC2)C3)cccc1C(F)(F)F (stereo not shown) [Example 499] | > 1 | < 1 | 
4 | COC1(C(=O)N2CCc3nc(Cl)nc(N[C@H](C)c4cc(N)cc(C(F)(F)F)c4)c3C2)CCC1 [Example 203] | > 1 | > 1 | 
5 | C[C@@H](Nc1nc(Cl)nc2c1CN(C(=O)C1(CO)CC1)CC2)c1cc(N)cc(C(F)(F)F)c1 [Example 206] | > 1 | > 1 | 
6 | C[C@@H](Nc1nc(Cl)nc2c1CC1(CC2)OCCO1)c1cc(N)cc(C(F)(F)F)c1 [Example 514, N-[(1R)-1-[3-amino-5-(trifluoromethyl)phenyl]ethyl]-2′-chloro-7′,8′-dihydro-5′H-spiro[1,3-dioxolane-2,6′-quinazoline]-4′-amine] | > 1 |  | 
7 | C[C@@H](Nc1nc(Cl)nc2c1CN(C(=O)N1CCOCC1)C2)c1cccc(C(F)(F)F)n1 [Example 473, 2-chloro-6-(morpholine-4-carbonyl)-N-[(1R)-1-[6-(trifluoromethyl)pyridin-2-yl]ethyl]-5H,6H,7H-pyrrolo[3,4-d]pyrimidin-4-amine] | > 1 | > 1 | 
8 | C[C@@H](Nc1nc(Cl)nc2c1CN(C(=O)C13CC(C1)C3)CC2)c1cc(N)cc(C(F)(F)F)c1 [Example 211] | > 1 | > 1 | 
9 | C[C@@H](Nc1nc(Cl)nc2c1CN(C(=O)N1CCOCC1)C2)c1cccc(C(F)CO)c1 (stereo partly drawn) [Example 519, [2-chloro-4-[[(1R)-1-[3-(1-fluoro-2-hydroxy-ethyl)phenyl]ethyl]amino]-5,7-dihydropyrrolo[3,4-d]pyrimidin-6-yl]-morpholino-methanone] | < 1 | > 1 | 
10 | COCC(F)(F)c1cccc([C@@H](C)Nc2nc(Cl)nc3c2CN(C(=O)C2(OC)CCOCC2)C3)c1 [Example 536, [2-chloro-4-[[(1R)-1-[3-(1,1-difluoro-2-methoxy-ethyl)phenyl]ethyl]amino]-5,7-dihydropyrrolo[3,4-d]pyrimidin-6-yl]-(4-methoxytetrahydropyran-4-yl)methanone] | < 1 | < 1 | 
11 | CC(Nc1nc(Cl)nc2c1CN(C(=O)N1CCOCC1)C2)c1cccc(S(N)(=O)=O)c1 (stereo not shown) [Example 535, 3-[1-[[2-chloro-6-(morpholine-4-carbonyl)-5,7-dihydropyrrolo[3,4-d]pyrimidin-4-yl]amino]ethyl]benzenesulfonamide] | > 1 |  | > 1
12 | CC(Nc1nc(Cl)nc2c1CN(C(=O)N1CCOCC1)C2)c1cc(N)c(F)c(C(F)(F)F)c1 (stereo not shown) [Example 533, [4-[1-[3-amino-4-fluoro-5-(trifluoromethyl)phenyl]ethylamino]-2-chloro-5,7-dihydropyrrolo[3,4-d]pyrimidin-6-yl]-morpholino-methanone] | > 1 | < 1 | 
13 | CC(Nc1nc(Cl)nc2c1CN(C(=O)N1CCOCC1)C2)c1ccc(-c2ccccc2)s1 (stereo not shown) [Example 532, [2-chloro-4-[1-(5-phenyl-2-thienyl)ethylamino]-5,7-dihydropyrrolo[3,4-d]pyrimidin-6-yl]-morpholino-methanone] | > 1 |  | > 1
14 | C[C@@H](Nc1nc(Cl)nc2c1CN(C(=O)N1CCOc3cccnc31)C2)c1cccc(C(F)(F)F)c1 [Example 368] | < 1 | < 1 | 
15 | COc1ccc(C2(C(=O)N3CCc4nc(Cl)nc(N[C@H](C)c5cc(N)cc(C(F)(F)F)c5)c4C3)COC2)cc1 [Example 192] | > 1 |  | 
16 | C[C@@H](Nc1nc(Cl)nc2c1CN(C(=O)[C@]13CCC[C@H]1C3(F)F)CC2)c1cc(N)cc(C(F)(F)F)c1 [Example 217] | > 1 |  | 
17 | COC1CCC(C(=O)N2CCc3nc(Cl)nc(N[C@H](C)c4cc(N)cc(C(F)(F)F)c4)c3C2)C1 (stereo partly shown) [Example 199] | > 1 | > 1 | 
18 | COC1(C(=O)N2Cc3nc(Cl)nc(N[C@H](C)c4cccc(C(F)(F)CO)c4)c3C2)CN(C2COC2)C1 [Example 267] | < 1 | < 1 | 

Row | Structure (SMILES) | IC50 [1] [µM] | IC50 [2, 3] [µM] | IC50 ([2]; PC-9, 1 h) [µM]
19 | C[C@@H](Nc1nc(Cl)nc2c1CN(C(=O)c1cncc(N3CCOCC3)n1)CC2)c1cc(N)cc(C(F)(F)F)c1 [Example 243] | > 1 | > 1 | 
20 | C[C@@H](Nc1nc(Cl)nc2c1CN(C(=O)c1cccc(C(F)(F)F)n1)CC2)c1cc(N)cc(C(F)(F)F)c1 [Example 251] |  | > 1 | 
21 | CC(CO)c1cccc(C(C)Nc2nc(Cl)nc3c2CN(C(=O)N2CCOCC2)C3)c1 (stereo not shown) [Example 500, 2-[3-(1-{[2-Chloro-6-(morpholine-4-carbonyl)-5H,6H,7H-pyrrolo[3,4-d]pyrimidin-4-yl]amino}ethyl)phenyl]propan-1-ol] | < 1 | > 1 | 
22 | C[C@@H](Nc1ncnc2c1CC(N1CCOCC1)C(=O)N2C)c1cc(N)cc(C(F)(F)F)c1 (stereo partly drawn) [Example 502, 4-{[(1R)-1-[3-amino-5-(trifluoromethyl)phenyl]ethyl]amino}-8-methyl-6-(morpholin-4-yl)-5H,6H,7H,8H-pyrido[2,3-d]pyrimidin-7-one] | < 1 | > 1 | 
23 | C[C@@H](Nc1nc(Cl)nc2c1CN(C(=O)[C@@]13CCC[C@@H]1OCC3)CC2)c1cc(N)cc(C(F)(F)F)c1 [Example 216] | > 1 | > 1 | 
24 | C[C@@H](Nc1nc(Cl)nc2c1CN(C(=O)N1CCc3ncccc31)C2)c1cccc(C(F)(F)F)c1 [Example 371] | < 1 | < 1 | 
25 | C[C@@H](Nc1nc(Cl)nc2c1CN(C(=O)C1(c3ncccn3)CC1)CC2)c1cc(N)cc(C(F)(F)F)c1 [Example 191] | > 1 |  | 
26 | Cc1cc([C@@H](C)Nc2nc(Cl)nc3c2CN(C(=O)N2CCOCC2)C3)cc(C(F)(F)F)c1 [Example 515, 2-chloro-N-[(1R)-1-[3-methyl-5-(trifluoromethyl)phenyl]ethyl]-6-(morpholine-4-carbonyl)-5H,6H,7H-pyrrolo[3,4-d]pyrimidin-4-amine] | > 1 |  | 
27 | C[C@@H](Nc1nc(Cl)nc2c1CN(C(=O)C1CN(C)CCO1)C2)c1cccc(C(F)(F)F)c1 (stereo partly shown) [Example 277] |  | > 1 | 
28 | COC1(C(=O)N2CCc3nc(Cl)nc(N[C@H](C)c4cc(N)cc(C(F)(F)F)c4)c3C2)CCOC1 (stereo partly shown) [Example 198] | > 1 |  | 
29 | C[C@@H](Nc1nc(Cl)nc2c1CN(C(=O)C1(N3CCOCC3)CCC1)CC2)c1cc(N)cc(C(F)(F)F)c1 [Example 207] | > 1 |  | 
30 | C[C@@H](Nc1nc(Cl)nc2c1CN(C(=O)c1ncccc1C(F)(F)F)CC2)c1cc(N)cc(C(F)(F)F)c1 [Example 253] | > 1 |  | 
31 | COc1ccc(C(=O)N2CCc3nc(Cl)nc(N[C@H](C)c4cc(N)cc(C(F)(F)F)c4)c3C2)nc1OC [Example 244] |  | > 1 | 
32 | C[C@@H](Nc1nc(Cl)nc2c1CN(S(=O)(=O)c1ccccn1)CC2)c1cc(N)cc(C(F)(F)F)c1 [Example 459] |  | < 1 | 
33 | C[C@@H](Nc1nc(Cl)nc2c1CN(C(=O)N1CCOCC1)C2)c1cc(F)cc(C(F)(F)F)c1 [Example 511, 2-chloro-N-[(1R)-1-[3-fluoro-5-(trifluoromethyl)phenyl]ethyl]-6-(morpholine-4-carbonyl)-5H,6H,7H-pyrrolo[3,4-d]pyrimidin-4-amine] | > 1 |  | 
34 | C[C@@H](Nc1nc(Cl)nc2c1CN(C(=O)N1CCOc3ccncc31)C2)c1cccc(C(F)(F)F)c1 [Example 373] | < 1 |  | 
35 | C[C@@H](Nc1nc(Cl)nc2c1CCN(CC1CCOC1)CC2)c1cc(N)cc(C(F)(F)F)c1 (stereo partly drawn) [Example 113, N-[(1R)-1-[3-amino-5-(trifluoromethyl)phenyl]ethyl]-2-chloro-7-(oxolan-3-ylmethyl)-5H,6H,7H,8H,9H-pyrimido[4,5-d]aze-pin-4-amine] | > 1 |  | 
